Like-named read-outs stand apart in the source and are kept apart here.
Key:
primary rat hepatocytes [1] = test: ROS generation in primary rat hepatocytes (DCFH-DA probe); type: cell-based; settings: primary hepatocytes of DM rats, atorvastatin 10 μM; GSH 0.5 and 2 mM, N-Acetylcysteine 0.5 and 2 mM, gemfibrozil 10 and 50 μM, ketoconazole 2 μM
Experimental: (§1) Another subset of experimental rats (CON, HFD and DM rats) were used for the primary rat hepatocytes isolation. […] Primary hepatocytes were isolated from experimental rats in a modified two-step collagenase perfusion method as previously reported. An aliquot of the hepatocyte suspension (at a density of 2.5 × 10^5/ml) was seeded in collagen-precoated plates. Following 4-h incubation, the medium was replaced with 500 μl fresh cultured medium. Twenty-four hours after plating, the medium was removed and the hepatocytes were overlaid with BD matrigel (0.25 mg/ml) in feeding medium (DMEM containing […] dexamethasone and 1% ITS) and cultured for another 24 h at 37 °C in a humidified atmosphere containing 5% CO2 for following experiments.
(§2) ROS generation was simultaneously measured using DCFH-DA as a fluorescent probe.

primary rat hepatocytes [2] = test: Hepatotoxicity in primary rat hepatocytes (MTT cell viability, LDH release); settings: for effect on atorvastatin-induced cytotoxicity: primary hepatocytes of DM rats, atorvastatin 10 μM, GSH 0.5 and 2 mM, N-Acetylcysteine 0.5 and 2 mM, gemfibrozil 10 and 50 μM, ketoconazole 2 μM
Experimental: as §1, §2

HepG2 cells [3] = test: Hepatotoxicity of atorvastatin in HepG2 cells (MTT); settings: 10 μM, 24 h
Experimental: (§3) The cells were cultured in DMEM containing 10% FBS (fetal bovine serum), non-essential amino acids, antibiotics (100 IU/ml penicillin and 100 μg/ml streptomycin), 2 mM L-glutamine, and 3.7 g/L NaHCO3 in a humidified incubator of 5% CO2 and 95% air atmosphere at 37 °C.

HepG2 cells [4] = test: Atorvastatin metabolism in HepG2 cells (formation of ortho-hydroxy atorvastatin); settings: HepG2, ketoconazole 2 and 10 μM; atorvastatin 30 μM, 30 min
Experimental: as §3

[5] = phenobarbital i.p. 80 mg/kg
Experimental: Blood samples were collected under light ether anesthesia via the oculi chorioideae vein at 5, 10, 20, 30, 45, 60, 120, 240, 360, and 720 min after first dose and last dose. After 3 or 4 samplings, the appropriate amount of normal saline was administered to the rats via the tail vein to compensate for blood loss. The blood collected was mixed properly with the anticoagulant and centrifuged at 4000 rpm for 10 min. The plasma was separated and stored at −80 °C until drug analysis.
The pharmacokinetic parameters were calculated using noncompartmental analysis on Phenix WinNonlin 6.1 (Pharsight, St. Louis, MO). All values were expressed as mean ± S.D. Results were analyzed using one-way analysis of variance (ANOVA) followed by Tukey’s post hoc test. Differences among groups were determined by nonparametric test when necessary. Statistical significance was assumed at P < 0.05.

[6] = tested on: normal rats and phenobarbital pre-treated rats; test: Atorvastatin-induced hepatotoxicity in normal rats and rats pre-treated with phenobarbital; settings: phenobarbital i.p. 80 mg/kg with atorvastatin 10, 20, 40 mg/kg for 10 days
Experimental: For normal rats, they were randomly divided into vehicle (CON) rats, low-dose treatment (AL) rats, middle-dose treatment (AM) rats and high-dose treatment (AH) rats (n = 5 for each group). CON rats orally received daily dose of vehicle. […] The serum biochemical parameters, liver weight and ROS levels were measured as described above.

hepatic SLCO1B1 = test: Activity and expression of hepatic SLCO1B1 in phenobarbital-treated rats; type: in vivo, rat; settings: PB rats, phenobarbital i.p. 80 mg/kg
hepatic Cyp3a = test: Activity and expression of hepatic Cyp3a in phenobarbital-treated rats; settings: PB rats, phenobarbital i.p. 80 mg/kg
Experimental: as §1
Repaglinide (20 μM) and midazolam (10 μM) were used as probe substrates to identify the activities of SLCO1B1 and Cyp3a, respectively.
Total rat liver extract was prepared in RIPA lysis buffer containing 1 mM PMSF to measure protein levels of Cyp3a and SLCO1B1. Protein concentrations were measured by the BCA protein assay kit. 50 μg proteins were separated on a SDS-polyacrylamide gel electrophoresis and transferred onto polyvinylidene fluoride membranes (Millipore Corporation, Billerica, MA, USA).

[7] = DM-AL: diabetic rats, 10 mg/kg, 10 days
[8] = DM-AM: diabetic rats, 20 mg/kg, 10 days
[9] = diabetic rats, 10 and 20 mg/kg, 10 days
[10] = serum, DM-AL: diabetic rats, 10 mg/kg, 10 days
[11] = serum, DM-AM: 20 mg/kg, 10 days
[12] = serum, DM-AM: diabetic rats, 20 mg/kg, 10 days

Experimental for diabetic rats: Briefly, experimental rats were assigned randomly to three groups: control (CON) group (n = 5), high-fat diet (HFD) group (n = 5) and diabetic (DM) group (n = 20). The CON rats were fed on normal chow while both HFD rats and DM rats were fed on high-fat diet (TROPHIC Animal Feed High-tech Co. Ltd, Nantong, China). After six-week of dietary manipulation, DM rats intraperitoneally (i.p.) received a single dose of STZ (35 mg/kg).
The diabetic rats were randomly divided into four groups (n = 5 for each group). The first group served as control group (DM).
Following last dose, rats, fasted overnight, were anesthetized with diethyl ether and blood samples were collected for measurement of blood chemistry. Then, the animals were sacrificed; the liver samples were harvested for standard histology, hepatic biochemical measurement and Western blot.

**Q.** What does the source list for `N[C@@H](CCC(=O)N[C@@H](CS)C(=O)NCC(=O)O)C(=O)O` [GSH, Glutathione]?
**A.** effect on atorvastatin-induced production of ROS (primary rat hepatocytes [1]): concentration-dependently reversed; effect on atorvastatin-induced cytotoxicity (primary rat hepatocytes [2]): concentration-dependently reversed

**Q.** What does the source list for `CC(=O)N[C@@H](CS)C(=O)O` [N-Acetylcysteine]?
**A.** effect on atorvastatin-induced production of ROS (primary rat hepatocytes [1]): concentration-dependently reversed; effect on atorvastatin-induced cytotoxicity (primary rat hepatocytes [2]): concentration-dependently reversed

**Q.** What does the source list for `CC(C)c1c(C(=O)Nc2ccccc2)c(-c2ccccc2)c(-c2ccc(F)cc2)n1CC[C@@H](O)C[C@@H](O)CC(=O)O` [atorvastatin, Atorvastatin calcium]?
**A.** cell viability (HepG2 cells [3]): little affected; cytotoxicity in primary hepatocytes of PB rats (primary rat hepatocytes [2]; phenobarbital pre-treated rats, 96 h): severe cytotoxicity; Body weight (diabetic rats; DM-AL: diabetic rats, 10 mg/kg atorvastatin orally once daily for 10 days): 269.3 ± 5.3 g; FBG (diabetic rats; [7]): 18.38 ± 1.75 mM; FINS (diabetic rats; [7]): 32.65 ± 2.15 mIU/L; HOMA-IR (diabetic rats; [7]): 27.56 ± 2.01; Liver weight (% of body weight) (diabetic rats; [7]): 6.94 ± 0.95 % of body weight; Spleen weight (% of body weight) (diabetic rats; [7]): 0.264 ± 0.027 % of body weight; liver weight (% of body weight) compared with DM rats (diabetic rats; DM-AM: 20 mg/kg, 10 days): almost doubled; Body weight (diabetic rats; DM-AM: diabetic rats, 20 mg/kg atorvastatin orally once daily for 10 days): 250.8 ± 22.4 g; FBG (diabetic rats; [8]): 18.34 ± 1.60 mM; FINS (diabetic rats; [8]): 32.51 ± 4.45 mIU/L; HOMA-IR (diabetic rats; [8]): 26.92 ± 2.52; Liver weight (% of body weight) (diabetic rats; [8]): 10.60 ± 2.25 % of body weight; Spleen weight (% of body weight) (diabetic rats; [8]): 0.392 ± 0.033 % of body weight; MDA levels in liver (diabetic rats; [9]): increased; SOD, CAT, GSH-pX and SDH activities in liver (diabetic rats; [9]): dose-dependently lowered; histopathological damage scores (diabetic rats; liver, DM-AL (10 mg/kg) and DM-AM (20 mg/kg) rats): Higher; TC (diabetic rats; [10]): 4.02 ± 0.71 mM; TG (diabetic rats; [10]): 5.40 ± 0.50 mM; AKP level compared with DM rats (diabetic rats; [11]): approximately doubled; ALT level compared with DM rats (diabetic rats; [11]): approximately doubled; AST level compared with DM rats (diabetic rats; [11]): approximately doubled; DBIL level compared with DM rats (diabetic rats; [11]): almost tripled; TBIL level compared with DM rats (diabetic rats; [11]): almost tripled; level of Alb (diabetic rats; [11]): significant decrease; TC (diabetic rats; [12]): 3.42 ± 0.52 mM; TG (diabetic rats; [12]): 3.75 ± 0.70 mM

**Q.** Which “effect on atorvastatin-induced production of ROS” value (primary rat hepatocytes [1]) does the source give for `Cc1ccc(C)c(OCCCC(C)(C)C(=O)O)c1` [gemfibrozil] here?
**A.** concentration-dependently reversed

**Q.** What about the “effect on atorvastatin-induced cytotoxicity” value (primary rat hepatocytes [2]) of the same compound?
**A.** concentration-dependently reversed

**Q.** Which “effect of co-incubation on atorvastatin metabolism” value (HepG2 cells [4]) does the source give for `CC(=O)N1CCN(c2ccc(OCC3COC(Cn4ccnc4)(c4ccc(Cl)cc4Cl)O3)cc2)CC1` (stereo not drawn) [ketoconazole, Ketoconazole] here?
**A.** concentration-dependently inhibited

**Q.** Which results are given for `CCC1(c2ccccc2)C(=O)NC(=O)NC1=O` [phenobarbital, Phenobarbital]?
**A.** effect on plasma exposure of atorvastatin in rats [5]: decreased; effect of co-administration on atorvastatin hepatotoxicity [6]: markedly potentiated; activities and expressions of hepatic SLCO1B1 (hepatic SLCO1B1): significantly increased; activities and expressions of hepatic Cyp3a (hepatic Cyp3a): significantly increased

Source: article PMC5021965 (Scientific Reports, 2016)
